Measurements as given in patent US8772341B2, “Compositions for the treatment of hoof diseases” (DeLaval Holding AB, priority 2006, dated 2014).

Columns and labels:
E. coli (ATCC 11229) = assay: modified AOAC sanitizer test (germicidal activity, with or without manure); assay type: cell-based, Escherichia coli
Experimental: (§1) The germicidal activity of a large number of ingredients has been tested for the ability to kill Escherichia coli and Staphylococcus aureus in mixtures that have been contaminated with 10% and 20% manure. E. coli and S. aureus were chosen as representative bacteria for screening purposes. Solutions of the mixtures with 10% manure and bacteria were prepared, and the reduction in the concentration of bacteria was determined after 30 seconds and again after 5 minutes. In addition, the formulas were evaluated for skin irritation based on in vitro test data. The testing method used was that of Wolfgang J. W. Pape, Udo Hoppe: In vitro Methods for the Assessment of Primary Local Effects of Topically Applied Preparations. Skin Pharmacol. (1991), 4: 205-212, which is incorporated herein by reference.
(§2) Experiments were performed to test the germicidal properties of the disclosed compositions using a modified version of the AOAC sanitizer test (Association of Official Analytical Chemists. 1990. Official Methods of Analysis, Pages 138-140 in Germicidal and Detergent Sanitizing Action of Disinfectants 960.09, Vol. I. 15th ed. AOAC, Arlington, Va.). According to this procedure, manure was collected from a dairy farm, dispensed into flasks and autoclaved at 121° C. and 17 psi for 30 minutes. Manure samples were then stored in a freezer until needed. When needed, manure was thawed at room temperature then dispensed into 250 mL Erlenmeyer flasks in amounts appropriate for the challenge desired (10 g for 10% manure, 20 g for 20% manure, etc.). The flasks with manure, and any empty flasks needed, were capped with aluminum foil and autoclaved at 134° C. and ˜20 psi for 4 min.
(§3) Freeze-dried pellets of E. coli (ATCC 11229) and S. aureus (ATCC 6538) were hydrated, placed in test tubes containing nutrient agar and incubated at 37° C. for 24 hours. Sterile buffer (0.0003 M phosphate adjusted to pH 6.6) was used to dilute and transfer the bacteria to additional nutrient agar tubes, which were incubated for another 24 hours. S. aureus was then diluted with buffer and transferred to nutrient agar in French bottles, and E. coli was diluted and transferred to fresh nutrient agar tubes. Both types of bacteria were incubated at 37° C. for 72 hours. E. coli was then diluted and transferred to nutrient agar in French bottles. Sterile buffer and glass beads were added to the S. aureus French bottles and the solution was vacuum filtered through a #2 filter. […] After 24 hours, the E. coli suspension was collected in the same manner.
(§4) Germicide sample solutions were prepared and dispensed into the flasks containing manure. For tests without manure, 99 mL of germicide were added to an empty, sterile, 250 mL flask. […]

S. aureus (ATCC 6538) = assay: as above; assay type: cell-based, Staphylococcus aureus
Experimental: as §1, §2, §3, §4

red blood cells = assay: in vitro irritation test on isolated red blood cells (haemolysis, denaturation); assay type: cell-based, calf; conditions: 18% solution
Experimental: as §1
Irritation tests were performed to determine whether or not the disclosed compositions would be mild enough for topical application. These tests involved two measurements made on fresh calf blood, where red blood cells were isolated by adding 50 mL of sodium citrate buffer (17.03 g trisodium citrate+8.45 g citric acid diluted to 1 L with bacteria-free DI water) to every 450 mL of blood, then repetitively washing with sodium citrate buffer and centrifuging to remove white blood cells and plasma.
Compositions disclosed herein were introduced into a container containing the isolated red blood cells and values for Haemolysis (H50); a Denaturation Index value (DI); and a Lysis/Denaturation Ratio (L/D) were determined using methods disclosed by Wolfgang J. W. Pape, Udo Hoppe: In vitro Methods for the Assessment of Primary Local Effects of Topically Applied Preparations. Skin Pharmacol. (1991), 4: 205-212. The haemolysis—or tendency of the red blood cells to rupture when in contact with the test product—was measured by the half-haemolysis value H50. The denaturation of protein caused by the test product was measured by the denaturation index (DI). The overall irritation value for a product was determined by the ratio of the H50/DI which is referred to as the lysis/denaturation quotient. The overall irritation score is given by the lysis/denaturation value which is calculated by the equation: L/D=H50 (measured in ppm)/DI (measured in %).
The higher the ppm value for H50 the less irritating the product. A crude scale is H50>500 ppm (non-irritant); 120-500 (slight irritant), 30-120 (moderate irritant), 10-30 (irritant) and 0-10 (strong irritant).
The L/D ratio is the primary value used to determine irritation. […]

[1] = test system: Bovine Digital Dermatitis (BDD) associated treponeme strains; assay: Treponema study, broth microdilution germicidal susceptibility (MIC/MBC); assay type: cell-based; conditions: for MBC (minimal bactericidal concentration): average over six Treponema cultures
Description: In an experiment carried out at the University of Liverpool, Liverpool, U.K., Treponema species were isolated from dairy farms and six cultures were used to measure the minimum inhibitory concentration (MIC, the lowest concentration which results in maintenance or reduction of inoculum's viability) and minimal bactericidal concentration (MBC, the lowest concentration which results in biocidal activity) of several commonly used germicides.
Six Bovine Digital Dermatitis (BDD) associated treponeme strains (Table 1) were used to investigate in vitro susceptibility of BDD associated Treponema (Evans, N. J.; Brown, J.; Demirkan, I.; Carter, S. D.; Hart, C. A. “In vitro susceptibility of Bovine Digital Dermatitis associated Treponema to antimicrobial agents” to be submitted to Antimicrob. Agents Chemother. To be submitted for publication September 2007). The strains included two isolates from each of three distinct phylogroups corresponding to three proposed new taxa, Treponema medium subsp. bovis, Treponema bovis and Treponema pedis (Evans, N. J.; Brown, J.; Demirkan, I. Murray, R. D.; Vink, D.; Blowey, R. W.; Hart, C. A.; Carter, S. D. “Tremponema medium subsp. bovis subsp. nov., Treponema bovis sp. nov. and Treponema pedis sp. nov.; novel spirochaetes associated with Bovine Digital Dermatitis.” International Journal of Systematic and Evolutionary Microbiology. Submitted for publication Oct. 18, 2006). […]
To determine MIC values, absorbance at 540 nm was measured for the microplate wells using a Multiskan microtitre plate reader (Thermo Scientific, Hampshire, U.K.). Measurements were recorded before and after incubation at 36° C. under anaerobic conditions—three days for T. pedis strains and four days for T. bovis and T. medium subsp. bovis strains. […] Cell growth was determined by comparison of the absorbance measurement immediately before and after incubation. […]
Microplates were incubated for a further four days at 36° C. under anaerobic conditions. Growth was assessed using phase contrast microscopy. […]

[2] = test system: hoof diseases (heel erosion, interdigital dermatitis, foot rot, white line abscess, digital dermatitis); assay: field trial of hoof bath at a commercial dairy farm; assay type: in vivo, cows; conditions: for Digital Dermatitis, number of hooves / Foot Rot, number of hooves / Heel Erosion, number of hooves / Interdigital Dermatitis, number of hooves / Total number of hoof problems / White Line Abscess, number of hooves: 178 hooves
Experimental: An 18% solution of N,N-bis(3-aminopropyl)dodecylamine with 0.17% FD&C Red #40 and 0.28% FD&C Yellow #5 was tested in a field trial at a commercial dairy farm. The product was diluted at a rate of 1+66 V/V and used to fill a hoof bath trough that the cows walked through as they left the milking parlor. A fresh hoof bath solution was prepared every day and the cows walked through the solution once each day of the week. For a month before the trial began no hoof bath treatment was applied to the cows. At the start of the trial a complete evaluation of the front and hind hooves was performed by a certified hoof trimmer, along with a veterinarian, who recorded the diseases observed in each hoof. The evaluation of the hooves was again performed after the hoof bath had been used for two months. All hooves that were present for both evaluations, and were not were not treated with antibiotics and wrapped at the first evaluation, were included in the data. […] The trial included 178 hooves.

[3] = 18% solution diluted 1+33 with potable water, 5 minutes exposure, 20% manure
[4] = 18% solution diluted 1+66 with potable water (0.27%), 30 seconds exposure, 20% manure
[5] = 18% solution diluted 1+66 with potable water (0.27%), 5 minutes exposure, no manure
[6] = 18% solution diluted 1+180 with potable water (0.1%), 5 minutes exposure, 10% manure
[7] = Primary Evaluation (start of trial, before hoof bath)
[8] = Secondary Evaluation after two months of daily hoof bath, 1+66 V/V

CCCCCCCCCCCCN(CCCN)CCCN [N,N-bis(3-aminopropyl)dodecylamine]
log reduction (E. coli (ATCC 11229); [3]): > 8.0 log
log reduction (E. coli (ATCC 11229); [4]): > 8 log
log reduction (E. coli (ATCC 11229); [5]): > 8 log
log reduction (E. coli (ATCC 11229); [6]): > 7.97 log
log reduction (S. aureus (ATCC 6538); [3]): > 7.94 log
log reduction (S. aureus (ATCC 6538); [4]): 4.8 log
log reduction (S. aureus (ATCC 6538); [5]): > 8 log
log reduction (S. aureus (ATCC 6538); [6]): > 7.94 log
skin irritation (conclusion from L/D) (red blood cells): does not cause skin irritation
combined L/D value (lysis/denaturation ratio) (red blood cells; L/D = H50/DI): 7×10^3
DI value (denaturation index) (red blood cells; calf red blood cells): 2.6%
H50 value (half-haemolysis) (red blood cells; calf red blood cells): 18000 ppm
MBC (minimal bactericidal concentration) [1]: 0.00051 % w/w
Digital Dermatitis, number of hooves [2, 7]: 33
Foot Rot, number of hooves [2, 7]: 0
Heel Erosion, number of hooves [2, 7]: 43
Interdigital Dermatitis, number of hooves [2, 7]: 2
Total number of hoof problems [2, 7]: 78
White Line Abscess, number of hooves [2, 7]: 0
Digital Dermatitis, number of hooves [2, 8]: 25
Foot Rot, number of hooves [2, 8]: 0
Interdigital Dermatitis, number of hooves [2, 8]: 0
Total number of hoof problems [2, 8]: 51
White Line Abscess, number of hooves [2, 8]: 1
Heel Erosion, number of hooves ([2]; Secondary Evaluation after two months of daily hoof bath, 18% solution with dyes diluted 1+66 V/V): 25
reduction in the total number of hoof problems ([2]; after two months of hoof bath treatment): ~35%
hooves with digital dermatitis at the beginning of the trial that were cured ([2]; after two months of treatment): Forty
hooves not infected at the beginning that did not develop any signs of digital dermatitis ([2]; by the end of the two month treatment): ninety

O=S(=O)([O-])[O-].[Cu+2] [copper sulfate]
MBC (minimal bactericidal concentration) [1]: 0.0054 % w/w

C=O [formaldehyde]
average MEC ([1]; six Treponema cultures): 0.0094 % w/w
